From patent US10479780B2, “Aminopyrazole derivatives” (Chugai Seiyaku Kabushiki Kaisha, priority 2015, dated 2019)

What was measured:
Format in all cases: biochemical
human Yes1 enzyme = biological target: T1, human Yes1 enzyme (Homo sapiens, UniProt P07947); assay: Yes1 enzyme inhibitory activity (time-resolved fluorometry, biotinylated peptide phosphorylation); details: read-out: YES_IC50
T1 construct: made in house
Outline: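 Inhibition was expressed against a compound-free control to give IC50, using TR-FRET read-out (Eu-cryptate anti-pTyr antibody, streptavidin-XL665).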

human Lck enzyme = biological target: T2, human Lck enzyme (Homo sapiens, UniProt P06239); assay: Lck enzyme inhibitory activity (time-resolved fluorometry, biotinylated peptide phosphorylation); details: read-out: LCK_IC50
T2 construct: purchased Carna Biosciences, Inc. 08-170
Outline: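 Readout pairs a europium cryptate-labelled anti-phosphotyrosine antibody with XL665-streptavidin, measured by time-resolved fluorescence. IC50 derived from percent inhibition against untreated controls.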

human Src enzyme = biological target: T3, human Src enzyme (Homo sapiens, UniProt P12931); assay: Src enzyme inhibitory activity (time-resolved fluorometry, biotinylated peptide phosphorylation); details: read-out: SRC_IC50
T3 construct: purchased Carna Biosciences, Inc. 08-173
Outline: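 Compounds were tested for blocking tyrosine phosphorylation of a biotinylated peptide substrate by recombinant human Src. Phosphorylated product was quantified by time-resolved fluorometry using europium cryptate and XL665 conjugates, and IC50 was calculated against the compound-free control.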

T1 sequence (P07947 whole entry): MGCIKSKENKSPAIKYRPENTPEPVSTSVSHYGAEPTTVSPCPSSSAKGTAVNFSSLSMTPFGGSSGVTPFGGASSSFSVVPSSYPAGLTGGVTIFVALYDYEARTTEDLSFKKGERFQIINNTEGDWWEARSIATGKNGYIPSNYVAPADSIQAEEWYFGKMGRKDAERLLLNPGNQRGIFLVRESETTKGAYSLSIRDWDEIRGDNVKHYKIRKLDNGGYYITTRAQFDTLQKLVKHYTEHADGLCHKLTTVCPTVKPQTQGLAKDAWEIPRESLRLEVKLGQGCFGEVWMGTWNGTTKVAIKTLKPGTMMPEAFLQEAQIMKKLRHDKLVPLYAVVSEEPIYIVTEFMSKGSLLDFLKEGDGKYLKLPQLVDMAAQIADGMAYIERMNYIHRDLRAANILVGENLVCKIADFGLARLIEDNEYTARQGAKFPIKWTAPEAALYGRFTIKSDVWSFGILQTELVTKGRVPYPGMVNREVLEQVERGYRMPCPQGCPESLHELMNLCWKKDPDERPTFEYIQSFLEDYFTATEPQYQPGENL
T2 sequence (P06239 whole entry): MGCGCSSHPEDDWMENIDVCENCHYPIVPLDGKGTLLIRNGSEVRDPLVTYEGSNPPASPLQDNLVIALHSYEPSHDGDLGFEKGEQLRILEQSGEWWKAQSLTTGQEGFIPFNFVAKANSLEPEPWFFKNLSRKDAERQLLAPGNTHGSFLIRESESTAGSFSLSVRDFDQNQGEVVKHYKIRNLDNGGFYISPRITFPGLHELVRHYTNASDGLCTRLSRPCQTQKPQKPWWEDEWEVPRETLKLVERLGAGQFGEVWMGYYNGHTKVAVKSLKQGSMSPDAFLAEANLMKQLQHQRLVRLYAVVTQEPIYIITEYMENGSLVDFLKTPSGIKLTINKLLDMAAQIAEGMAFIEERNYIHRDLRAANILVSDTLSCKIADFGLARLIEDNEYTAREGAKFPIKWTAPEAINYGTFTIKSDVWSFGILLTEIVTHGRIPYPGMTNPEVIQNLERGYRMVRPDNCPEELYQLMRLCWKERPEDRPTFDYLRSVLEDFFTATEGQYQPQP
T3 sequence (P12931 whole entry): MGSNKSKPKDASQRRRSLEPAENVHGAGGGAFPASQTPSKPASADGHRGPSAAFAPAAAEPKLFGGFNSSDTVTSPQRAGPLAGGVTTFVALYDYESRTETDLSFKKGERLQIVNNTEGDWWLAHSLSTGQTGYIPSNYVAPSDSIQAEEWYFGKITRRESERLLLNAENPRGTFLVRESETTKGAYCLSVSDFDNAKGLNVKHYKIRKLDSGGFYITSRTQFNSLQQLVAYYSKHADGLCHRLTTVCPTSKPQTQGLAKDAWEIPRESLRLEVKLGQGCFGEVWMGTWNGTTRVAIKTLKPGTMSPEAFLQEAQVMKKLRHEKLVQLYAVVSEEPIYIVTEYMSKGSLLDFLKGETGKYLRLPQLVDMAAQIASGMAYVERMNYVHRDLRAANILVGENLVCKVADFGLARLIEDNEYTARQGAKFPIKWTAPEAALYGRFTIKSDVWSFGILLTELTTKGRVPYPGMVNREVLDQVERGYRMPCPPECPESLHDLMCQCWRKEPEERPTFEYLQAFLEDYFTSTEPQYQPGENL

Compound | IC50 (human Yes1 enzyme) [nM] | IC50 (human Lck enzyme) [nM] | IC50 (human Src enzyme) [nM]
Cc1cc(Oc2c(F)cccc2F)ncc1-n1ncc(C(=O)c2cc3cc(OC4CCN(C(C)C)CC4)c(F)cc3[nH]2)c1N [Example 5-1-204, [5-amino-1-[6-(2,6-difluorophenoxy)-4-methylpyridin-3-yl]pyrazol-4-yl]-[6-fluoro-5-(1-propan-2-ylpiperidin-4-yl)oxy-1H-indol-2-yl] methanone] | 0.5 | 6.7 | 10
Cc1cc(Oc2c(F)cccc2F)ncc1-n1ncc(C(=O)c2cc3cc(OC4CCN(C(C)C)CC4)c(Cl)cc3[nH]2)c1N [Example 5-1-205, [5-amino-1-[6-(2,6-difluorophenoxy)-4-methylpyridin-3-yl]pyrazol-4-yl]-[6-chloro-5-(1-propan-2-ylpiperidin-4-yl)oxy-1H-indol-2-yl] methanone] | 0.43 | 7.2 | 15
Cc1cc2cc(C(=O)c3cnn(-c4ccc(Oc5ccccc5F)c(C)c4F)c3N)[nH]c2cc1NS(C)(=O)=O [Example 5-1-207, N-[2-[5-ainino-1-[2-fluoro-4-(2-fluorophenoxy)-3-methylphenyl]pyrazole-4-carbonyl]-5-methyl-1H-indol-6-yl]methanesulfonamide] | 1.9 | 82 | 350
Cc1cc(-n2ncc(C(=O)c3cc4cc(OC5CCN(C(C)C)CC5)c(F)cc4[nH]3)c2N)ccc1Oc1cccc(F)c1 [Example 5-1-208, [5-amino-1-[4-(3-fluorophenoxy)-3-methylphenyl]pyrazol-4-yl]-[6-fluoro-5-(1-propan-2-ylpiperidin-4-yl)oxy-1H-indol-2-yl] methanone] | 3.7 | 65 | 450
Cc1cc(-n2ncc(C(=O)c3cc4cc(OC5CCN(C(C)C)CC5)c(Cl)cc4[nH]3)c2N)ccc1Oc1cccc(F)c1 [Example 5-1-209, [5-amino-1-[4-(3-fluorophenoxy)-3-methylphenyl]pyrazol-4-yl]-[6-chloro-5-(1-propan-2-ylpiperidin-4-yl)oxy-1H-indol-2-yl] methanone] | 4.4 | 98 | 420
Cc1cc(-n2ncc(C(=O)c3cc4cc(OC5CCN(C(C)C)CC5)c(Br)cc4[nH]3)c2N)ccc1Oc1cccc(F)c1 [Example 5-1-210, [5-amino-1-[4-(3-fluorophenoxy)-3-methylphenyl]pyrazol-4-yl]-[6-bromo-5-(1-propan-2-ylpiperidin-4-yl)oxy-1H-indol-2-yl] methanone] | 6.5 | 120 | 510
Cc1cc(-n2ncc(C(=O)c3cc4cc(OC5CCN(C(C)C)CC5)c(Br)cc4[nH]3)c2N)c(F)cc1Oc1ccccc1F [Example 5-1-212, [5-amino-1-[2-fluoro-4-(2-fluorophenoxy)-5-methylphenyl]pyrazol-4-yl]-[6-bromo-5-(1-propan-2-ylpiperidin-4-yl)oxy-1H-indol-2-yl] methanone] | 4.5 | 60 | 220
Cc1cc2cc(C(=O)c3cnn(-c4ccc(Oc5ccccc5F)c(C)c4C)c3N)[nH]c2cc1NS(C)(=O)=O [Example 5-1-213, N-[2-[5-amino-1-[4-(2-fluorophenoxy)-2,3-dimethylphenyl]pyrazole-4-carbonyl]-5-methyl-1H-indol-6-yl]methanesulfonamide] | 9.8 | 150 | 600
Cc1cc2cc(C(=O)c3cnn(-c4ccc(Oc5ccccc5F)c(F)c4F)c3N)[nH]c2cc1NS(C)(=O)=O [Example 5-1-214, N-[2-[5-amino-1-[2,3-difluoro-4-(2-fluorophenoxy)phenyl]pyrazole-4-carbonyl]-5-methyl-1H-indol-6-yl]methanesulfonamide] | 0.99 | 11 | 52
Cc1cc(-n2ncc(C(=O)c3cc4cc(OC5CCN(C(C)C)CC5)c(N5CCC(N6CCOCC6)CC5)cc4[nH]3)c2N)c(F)cc1Oc1ccccc1F [Example 5-1-215, [5-amino-1-[2-fluoro-4-(2-fluorophenoxy)-5-methylphenyl]pyrazol-4-yl]-[6-(4-morpholin-4-ylpiperidin-1-yl)-5-(1-propan-2-ylpiperidin-4-yl)oxy-1H-indol-2-yl]methanone] | 0.81 | 6 | 82
Cc1cc(-n2ncc(C(=O)c3cc4cc(OC5CCN(C6CCCC6)CC5)c(Br)cc4[nH]3)c2N)ccc1Oc1ccccc1F [Example 5-1-216, [5-amino-1-[4-(2-fluorophenoxy)-3-methylphenyl]pyrazol-4-yl]-[6-bromo-5-(1-cyclopentylpiperidin-4-yl)oxy-1H-indol-2-yl] methanone] | 1.7 | 47 | 1000
Cc1cc(-n2ncc(C(=O)c3cc4cc(OCC(F)F)c(C5CCN(S(C)(=O)=O)CC5)cc4[nH]3)c2N)ccc1Oc1ccccc1F [Example 5-1-217, [5-amino-1-[4-(2-fluorophenoxy)-3-methylphenyl]pyrazol-4-yl]-[5-(2,2-difluoroethoxy)-6-(1-methylsulfonylpiperidin-4-yl)-1H-indol-2-yl]methanone] | 1.4 | 48 | 150
Cc1cc(-n2ncc(C(=O)c3cc4cc(OC5CCN(C6CCC6)CC5)c(Br)cc4[nH]3)c2N)ccc1Oc1ccccc1F [Example 5-1-218, [5-amino-1-[4-(2-fluorophenoxy)-3-methylphenyl]pyrazol-4-yl]-[6-bromo-5-(1-cyclobutylpiperidin-4-yl)oxy-1H-indol-2-yl] methanone] | 0.64 | 39 | 220
Cc1cc(-n2ncc(C(=O)c3cc4cc(OC5CCN(C6CC6)CC5)c(Br)cc4[nH]3)c2N)ccc1Oc1ccccc1F [Example 5-1-219, [5-amino-1-[4-(2-fluorophenoxy)-3-methylphenyl]pyrazol-4-yl]-[6-bromo-5-(1-cyclopropylpiperidin-4-yl)oxy-1H-indol-2-yl] methanone] | 1.3 | 83 | 460
Cc1cc(-n2ncc(C(=O)c3cc4cc(OC5CCN(C6COC6)CC5)c(Br)cc4[nH]3)c2N)ccc1Oc1ccccc1F [Example 5-1-220, (5-amino-1-(4-(2-fluorophenoxy)-3-methylphenyl)-1H-pyrazol-4-yl)(6-bromo-5-((1-(oxetan-3-yl)piperidin-4-yl)oxy)-1H-indol-2-yl)methanone] | 1.5 | 56 | 180
Cc1cc(Oc2c(F)cccc2F)ncc1-n1ncc(C(=O)c2cc3cc(OC4CCN(C5CCC5)CC4)c(Br)cc3[nH]2)c1N [Example 5-1-221, [5-amino-1-[6-(2,6-difluorophenoxy)-4-methylpyridin-3-yl]pyrazol-4-yl]-[6-bromo-5-(1-cyclobutylpiperidin-4-yl)oxy-1H-indol-2-yl] methanone] | 0.66 | 7.5 | 6.4
Cc1cc(Oc2c(F)cccc2F)ncc1-n1ncc(C(=O)c2cc3cc(OC4CCN(C5COC5)CC4)c(Br)cc3[nH]2)c1N [Example 5-1-222, [5-amino-1-[6-(2,6-difluorophenoxy)-4-methylpyridin-3-yl]pyrazol-4-yl]-[6-bromo-5-[1-(oxetan-3-yl)plperidin-4-yl]oxy-1H-indol-2-yl] methanone] | 1.3 | 7.5 | 4.7
Cc1cc(Oc2c(F)cccc2F)ncc1-n1ncc(C(=O)c2cc3cc(OC4CCN(C5CCCC5)CC4)c(Br)cc3[nH]2)c1N [Example 5-1-223, [5-amino-1-[6-(2,6-difluorophenoxy)-4-methylpyridin-3-yl]pyrazol-4-yl]-[6-bromo-5-(1-cyclopentylpiperidin-4-yl)oxy-1H-indol-2-yl] methanone] | 1.5 | 7.2 | 7.4
Cc1cc(Oc2c(F)cccc2F)ncc1-n1ncc(C(=O)c2cc3cc(OC4CCN(C5CC5)CC4)c(Br)cc3[nH]2)c1N [Example 5-1-224, [5-amino-1-[6-(2,6-difluorophenoxy)-4-methylpyridin-3-yl]pyrazol-4-yl]-[6-bromo-5-(1-cyclopropylpiperidin-4-yl)oxy-1H-indol-2-yl] methanone] | 0.57 | 6.3 | 17
Cc1cc(-n2ncc(C(=O)c3cc4cc(OC5CCN(CCO)CC5)c(Br)cc4[nH]3)c2N)ccc1Oc1ccccc1F [Example 5-1-225, [5-amino-1-[4-(2-fluorophenoxy)-3-methylphenyl]pyrazol-4-yl]-[6-bromo-5-[1-(2-hydroxyethyl)piperidin-4-yl]oxy-1H-indol-2-yl]methanone] | 0.46 | 12 | 89
Cc1cc(Oc2c(F)cccc2F)ncc1-n1ncc(C(=O)c2cc3cc(OC4CCN(CCO)CC4)c(Br)cc3[nH]2)c1N [Example 5-1-226, [5-amino-1-[6-(2,6-difluorophenoxy)-4-methylpyridin-3-yl]pyrazol-4-yl]-[6-bromo-5-[1-(2-hydroxyethyl)piperidin-4-yl]oxy-1H-indol-2-yl]methanone] | 0.34 | 2 | 3.3
Cc1cc(-n2ncc(C(=O)c3cc4cc(OC5CCN(C6CS(=O)(=O)C6)CC5)c(Br)cc4[nH]3)c2N)ccc1Oc1ccccc1F [Example 5-1-227, [5-amino-1-[4-(2-fluorophenoxy)-3-methylphenyl]pyrazol-4-yl]-[6-bromo-5-[1-(1,1-dioxothietan-3-yl)piperidin-4-yl]oxy-1H-indol-2-yl]methanone] | 3.9 | 46 | 560
